Experimental findings from ChEMBL document CHEMBL4819120, “Identification of non-covalent 3C-like protease inhibitors against severe acute respiratory syndrome coronavirus-2 via virtual screening of a Korean compound library” (Bioorg Med Chem Lett, 2021) are described below.

Series [1] can be described thus: Inhibition of SARS-CoV-2 3CL protease using DABCYL-KTSAVLQ-SGFRKME-EDANS fluorogenic peptide as substrate by fluorescence assay. Also on record: species or system Severe acute respiratory syndrome coronavirus 2.
A further series has as its system Vero C1008. The series is described as follows: Cytotoxicity against African green monkey Vero E6 cells. The format is cell-based. The conditions noted are these: chlorocebus sabaeus.
A further series has as its system SARS-CoV-2. The experiment in a line: microbe, parasite or virus in culture. The note with it: Severe acute respiratory syndrome coronavirus 2, Vero C1008.

By IC50 is commonly meant the concentration that gives 50% inhibition. One may read the CC50 as the concentration giving 50% cytotoxicity. For orientation: EC50 means the midpoint of the concentration-response curve.

Description for SARS-CoV-2: Antiviral activity against SARS-CoV-2 infected in monkey Vero E6 cells

Consider `Cc1ccc(Cl)cc1NC(=O)Cn1nc2c(Oc3ccc(C(C)C)cc3)nccn2c1=O`, for which the IC50 in series [1] came out at 8.9 µM.

In series [1], `CCc1ccc(NC(=O)Cn2nc3n(Cc4ccc(F)cc4)c(=O)c4ccccc4n3c2=O)cc1` yielded an IC50 of 12.1 µM.

For `Cc1cc(C)cc(Nc2nc(C)cc3nn(CC(=O)Nc4cc(F)ccc4F)c(=O)n23)c1`, it took 8 µM to reach half-maximal inhibition in series [1] (IC50). The molecule further yielded a CC50 with Vero C1008 of 469 µM. This molecule gave an EC50 in the series with SARS-CoV-2 of 141 µM.

In series [1], `Cc1ccc(Cn2c(=O)c3ccccc3n3c(=O)n(CC(=O)Nc4ccc(F)cc4F)nc23)cc1` gave an IC50 of 9.5 µM.

Molecule `Cc1cc(C)cc(Nc2nc(C)cc3nn(CC(=O)Nc4ccccc4F)c(=O)n23)c1` gave an IC50 in series [1] of 10.9 µM.

In the case of `Cc1cc2nn(CC(=O)Nc3ccccc3F)c(=O)n2c(Nc2ccccc2C)n1`, the IC50 in series [1] was 8.7 µM.

In series [1], `O=C(Cn1c2ccccc2n2c(=O)cc(-c3ccc(Cl)cc3)nc12)Nc1ccc(F)cc1F` came in with an IC50 of 5.7 µM. In the series with Vero C1008, the CC50 was 454 µM. In the series with SARS-CoV-2, this molecule returned an EC50 of 39.9 µM.
